Laboratory results from patent US20220000880A1, “METHOD AND COMPOSITION EMBODIMENTS FOR TREATING ACUTE MYELOID LEUKEMIA” (Rigel Pharmaceuticals, Inc., priority 2018, published 2022).

What was measured:
[1] = system: AML samples expressing high levels of HOXA9 and MEIS1; assay: apoptosis measurement (Annexin V) in AML samples; format: cell-based, human; conditions: 1 μM, 5 μM and 10 μM for 24 hours; alone or in combination
Experimental: Isolation of bone marrow mononuclear cells from human bone marrow aspirates can be achieved by Ficoll density centrifugation (400×g, RT, 45 min). CD34+ bone marrow mononuclear cells can be isolated using the human CD34 MultiSort Kit (Miltenyi Biotec). […] The cells can be passed through a mesh to remove cell clumps and can then be incubated in MACS buffer, which can be supplemented with FcR Blocking Reagent, and CD34 MultiSort MicroBeads for a particular time and at a particular temperature (e.g., 30 minutes at 4° C.). Excess beads are removed by washing and then magnetic separation using LS columns is carried out. After elution, cells are washed once in MACS buffer and can be resuspended in SFEM supplemented with diverse cytokines. Flow cytometry can be used to assess the purity of the isolated cells. […] The Annexin V Apoptosis Detection Kit I (BD Bioscience) can be used to detect apoptotic cell death. Cells are harvested and washed once with PBS, and can be resuspended in Annexin V binding buffer (200 μl 1×) containing 5 μl Annexin-PE or Annexin-APC and incubated at room temperature in the dark. After washing (e.g., once with 1× Annexin binding buffer), cells are resuspended in 1× Annexin V binding buffer containing 7-AAD (5 μl) and incubated at room temperature in the dark. 1× Annexin V binding buffer (200 μl) is added and cells are analysed using a BD LSRFortessa flow cytometer.

[2] = system: HOXA9/MEIS1 cells; assay: time-lapse microscopy and single-cell tracking of cell fate; format: cell-based
Source text: The effect of Syk inhibition in HOXA9 and HOXA9/MEIS1 cells by monitoring the fate of individual cells and their progeny by time-lapse microscopy and single-cell tracking also can be carried out.

[3] = system: AML cell lines; assay: cytotoxicity by Annexin V/PI staining against a panel of AML cell lines; format: cell-based; set-up: cytotoxic activity, agent alone: dose or concentration left out as unconfirmed
Experimental: In this example, the ability of 6-((5-fluoro-2-((3,4,5-trimethoxyphenyl)amino)pyrimidin-4-yl)amino)-2,2-dimethyl-2H-pyrido[3,2-b][1,4]oxazin-3(4H)-one (or a prodrug thereof) to synergistically enhance cytotoxic activity of venetoclax in AML cell lines is evaluated. Cytotoxic effects of venetoclax can be determined using Annexin V/PI staining against a panel of different AML cell lines.

[4] = system: AML cell line xenograft; assay: mouse model xenografted with an AML cell line, tumor growth; format: in vivo; conditions: intraperitoneal injections; subcutaneous tumors ≥250 mm^3
Source text: The activity of 6-((5-fluoro-2-((3,4,5-trimethoxyphenyl)amino)pyrimidin-4-yl)amino)-2,2-dimethyl-2H-pyrido[3,2-b][1,4]oxazin-3(4H)-one (or a prodrug thereof), alone, also can be evaluated. To do so, activity of 6-((5-fluoro-2-((3,4,5-trimethoxyphenyl)amino)pyrimidin-4-yl)amino)-2,2-dimethyl-2H-pyrido[3,2-b][1,4]oxazin-3(4H)-one can be tested in the appropriate mouse model xenografted with an AML cell line. Tumors can be injected subcutaneously (e.g., in the right flank) and allowed to grow until they reached an appropriate size (e.g., ≥250 mm^3). Intraperitoneal injections can be used to introduce the treatment. […] In some examples, significant differences in tumor volume between mice receiving 6-((5-fluoro-2-((3,4,5-trimethoxyphenyl)amino)pyrimidin-4-yl)amino)-2,2-dimethyl-2H-pyrido[3,2-b][1,4]oxazin-3(4H)-one alone and mice receiving 6-((5-fluoro-2-((3,4,5-trimethoxyphenyl)amino)pyrimidin-4-yl)amino)-2,2-dimethyl-2H-pyrido[3,2-b][1,4]oxazin-3(4H)-one in combination with venetoclax can be observed.

[5] = system: mice transplanted with HOXA9/MEIS1 cells; assay: mice transplanted with HOXA9/MEIS1 cells treated with fostamatinib-impregnated feed; format: in vivo, mouse; conditions: feed at 3 g/kg, 5 g/kg or 8 g/kg
Experimental: In this example, mice transplanted with HOXA9 MEIS1 or HOXA9 cells are treated with fostamatinib using feed impregnated with fostamatinib at 3 g/kg, 5 g/kg or 8 g/kg (AIN-76A rodent diet).

## COc1cc(Nc2ncc(F)c(Nc3ccc4c(n3)NC(=O)C(C)(C)O4)n2)cc(OC)c1OC [6-((5-fluoro-2-((3,4,5-trimethoxyphenyl)amino)pyrimidin-4-yl)amino)-2,2-dimethyl-2H-pyrido[3,2-b][1,4]oxazin-3(4H)-one]
[1]
  sensitivity of AML samples with high HOXA9 and MEIS1 compared with samples with weak MEIS1 expression: more sensitive
[2]
  cell death compared with cells treated with DMSO: significant increase
[3]; cells treated at different concentrations for e.g. 2 hours
  effect on cytotoxic activity of venetoclax: markedly increase the cytotoxic activity of venetoclax
[3]; compound (or prodrug) alone
  cytotoxic effects on its own: absence of any substantial cytotoxic effects
[4]
  tumor growth, compound alone: partially inhibit tumor growth

## COc1cc(Nc2ncc(F)c(Nc3ccc4c(n3)N(COP(=O)(O)O)C(=O)C(C)(C)O4)n2)cc(OC)c1OC [fostamatinib, 6-((5-fluoro-2-((3,4,5-trimethoxyphenyl)amino)pyrimidin-4-yl)amino)-2,2-dimethyl-3-oxo-2,3-dihydro-4H-pyrido[3,2-b][1,4]oxazin-4-yl)methyl dihydrogen phosphate]
[5]; longer treatment (e.g., 20 days)
  survival of mice: significantly prolong the survival
[5]; one week of treatment
  percentage of leukemic cells: reduce the percentage of leukemic cells

## CC1(C)CCC(CN2CCN(c3ccc(C(=O)NS(=O)(=O)c4ccc(NCC5CCOCC5)c([N+](=O)[O-])c4)c(Oc4cnc5[nH]ccc5c4)c3)CC2)=C(c2ccc(Cl)cc2)C1 [venetoclax, reference compound]
[3]; venetoclax alone, concentrations ranging
  cytotoxic activity, agent alone: only modest activity
